Measurements reported in US20250134870A1, “PATHWAY MODULATOR, PHARMACEUTICAL COMPOSITION HAVING SAME, USE THEREOF, AND THERAPEUTIC METHOD USING SAME” (Jiangsu Yahong Meditech Co., Ltd., priority 2021, published 2025).

Assays:
[1] = system: collagen-induced arthritis (CIA); experiment: Collagen-induced arthritis (CIA) in mice: body weight, clinical score, AUC, incidence (Example 9); assay type: in vivo, DBA/1 mice; details: 50 mg/kg PO QD, 2 weeks
Protocol: DBA/1 mice were anesthetized with isoflurane and injected subcutaneously with 50 μL of prepared collagen emulsion (containing 200 μg of CII) in the tail. The day of the first immunization was recorded as Day 0, and the subsequent days were marked sequentially. On Day 21, mice were injected with a same volume of collagen emulsion in the tail.
Dosing lasted for 14 consecutive days. Compounds were prepared every 3 days and stored at 4° C.
Since Day 28, mice were weighed three times a week and clinical scores were recorded until the end of the experiment.
Clinical score: scores were given according to different degrees of lesions (redness and swelling, arthrentasis) on a scale of 0-4 points, the highest score was 4 points for each limb and 16 points for each animal.
Experimental data were represented as mean±standard error. Body weight and clinical score were analyzed by two-way ANOVA, and difference with p<0.05 was considered as significant.

[2] = system: imiquimod (IMQ)-induced psoriasis; experiment: Imiquimod (IMQ)-induced psoriasis in mice: erythema, scales, thickness, total score, AUC (Example 8); assay type: in vivo, Balb/c mice; parameters: key to erythema score / scales score / thickness score: 0 = none, 1 = mild, 2 = moderate, 3 = obvious/severe; key to total score of erythema + scales + thickness: sum of three 0-3 scores (erythema + scales + thickening), 0-9
Protocol: All mice were shaved with a pet shaver to get an area of 2×3 cm on the back one day before the start of the experiment.
65 animals were randomly divided into groups according to body weight, and the dosing regimen was as follows.
Imiquimod (IMQ) cream: 62.5 mg of IMQ cream for each mouse in G2 to G7; Dexamethasone (DEX) ointment: 70 mg of ointment for each mouse in G4;
Tofacitinib: Tofacitinib was dissolved in dimethyl sulfoxide to 5 mg/mL, and 50 μL was added to IMQ cream for daily treatment.
Mice in Groups 2 to 7 received daily topical doses of 62.5 mg of IMQ cream on their shaved back from Day 0 to Day 7.
Dosing of the test compounds and reference substance was carried out according to Table 29 for 7 consecutive days.
To assess the severity of inflammation of skin on the back, the skin on the back was scored according to Table 30. Erythema, scales and thickening were scored independently on a scale of 0 to 3, 0, none; 1. mild; 2. moderate; 3. obvious/severe.
The inhibition rate was calculated according to the following formula: Inhibition rate=[AUC (solvent)−AUC (treatment)]/AUC (solvent)×100%. Wherein, solvent referred to the solvent group corresponding to the route of administration.

[3] = system: 2,4-dinitrobenzenesulfonic acid (DNBS)-induced colitis; experiment: DNBS-induced enteritis/colitis in rats: body weight and stool score (Example 10); assay type: in vivo, Wistar rats; details: 3, 10 and 30 mg/kg
Protocol: The 90 animals were randomly grouped on Day-1 (i.e., the day before the experiment) based on animal body weight to ensure that the body weight of each group of animals were similar, so as to reduce bias. Rats were fasted for 40 hours before the experiment and were injected subcutaneously with 5% glucose saline (10 mL/kg, once daily) during fasting. • Experimental grouping:
On Day 1 of the experiment, fasting rats were anesthetized by intraperitoneal injection with Zoletil (25 mg/kg Tiletamine and 25 mg/kg Zolazepam) and 5 mg/kg Xylazine.
In groups G2-G6, a hose was inserted from the anus to left colic flexure (about 8 cm from the anus) and colitis was induced by DNBS enema (0.5 mL/animal) in rats. The normal control group (G1) received 30% ethanol enema by the same process. The head of the animal after enema was lowered for 15 min, and then the animal was kept in Trendelenburg position until waked to avoid backflow of the enema fluid.
The percentage of body weight was calculated according to the following formula: (body weight on Day X-initial weight)/initial weight]×100%.
(2) Stool score: during the experiment, the stool state of rats was scored daily (0=normal, 1=wet/sticky, 2=loose, 3=liquid).

[4] = Day 0, 50 mg/kg oral QD (Nepicastat A)
[5] = Day 0, 100 mg/kg topical QD (Nepicastat B)
[6] = Day 0, group Nepicastat A (50 mpk oral)
[7] = Day 0, group Nepicastat B (100 mpk topical)
[8] = Day 1, 50 mg/kg oral QD (Nepicastat A)
[9] = Day 1, 100 mg/kg topical QD (Nepicastat B)
[10] = Day 1, group Nepicastat A (50 mpk oral)
[11] = Day 1, group Nepicastat B (100 mpk topical)
[12] = Day 2, 50 mg/kg oral QD (Nepicastat A)
[13] = Day 2, 100 mg/kg topical QD (Nepicastat B)
[14] = Day 2, group Nepicastat A (50 mpk oral)
[15] = Day 2, group Nepicastat B (100 mpk topical)
[16] = Day 3, 50 mg/kg oral QD (Nepicastat A)
[17] = Day 3, 100 mg/kg topical QD (Nepicastat B)
[18] = Day 3, group Nepicastat A (50 mpk oral)
[19] = Day 3, group Nepicastat B (100 mpk topical)
[20] = Day 4, 50 mg/kg oral QD (Nepicastat A)
[21] = Day 4, 100 mg/kg topical QD (Nepicastat B)
[22] = Day 4, group Nepicastat A (50 mpk oral)
[23] = Day 4, group Nepicastat B (100 mpk topical)
[24] = Day 5, 50 mg/kg oral QD (Nepicastat A)
[25] = Day 5, 100 mg/kg topical QD (Nepicastat B)
[26] = Day 5, group Nepicastat A (50 mpk oral)
[27] = Day 5, group Nepicastat B (100 mpk topical)
[28] = Day 6, 50 mg/kg oral QD (Nepicastat A)
[29] = Day 6, 100 mg/kg topical QD (Nepicastat B)
[30] = Day 6, group Nepicastat A (50 mpk oral)
[31] = Day 6, group Nepicastat B (100 mpk topical)
[32] = Day 7, 50 mg/kg oral QD (Nepicastat A)
[33] = Day 7, 100 mg/kg topical QD (Nepicastat B)
[34] = Day 7, group Nepicastat A (50 mpk oral)
[35] = Day 7, group Nepicastat B (100 mpk topical)
[36] = oral administration 50 mg/kg, Day 5 to Day 7

For NCc1c[nH]c(=S)n1[C@H]1CCc2c(F)cc(F)cc2C1 [Nepicastat], the “effect on collagen-induced arthritis in mice” value [1] was “had some known effects on collagen-induced arthritis in mice, but not as obvious as the positive control drug”, the “progression and incidence of the disease” value ([2]; 50 mg/kg oral and 100 mg/kg topical QD × 7 days) was “did not affect the progression and incidence of the disease, but showed efficacy at the later stages of the disease course (Day 5 to Day 7)” and the “efficacy on the clinical score of the skin” value ([2]; 100 mpk topical QD × 7 days) was “no significant efficacy”. It also gave an erythema score [2, 4] of 0, a scales score [2, 4] of 0 and an erythema score [2, 5] of 0. For the same molecule, the scales score [2, 5] was 0, the thickness score [2, 6] was 0 and the “total score of erythema + scales + thickness” value (“total score” below) [2, 6] was 0. The thickness score [2, 7] was 0, the “total score” value [2, 7] was 0 and the erythema score [2, 8] was 0. For the same molecule, the scales score [2, 8] was 0, the erythema score [2, 9] was 0 and the scales score [2, 9] was 0. For the same molecule, the thickness score [2, 10] was 0.6, the “total score” value [2, 10] was 0.6 and the thickness score [2, 11] was 0.9. The “total score” value [2, 11] was 0.9, the erythema score [2, 12] was 1.4 and the scales score [2, 12] was 0. It also gave an erythema score [2, 13] of 1.5, a scales score [2, 13] of 0 and a thickness score [2, 14] of 1.2. The “total score” value [2, 14] was 2.6, the thickness score [2, 15] was 1.3 and the “total score” value [2, 15] was 2.8. For the same molecule, the erythema score [2, 16] was 1.5, the scales score [2, 16] was 0 and the erythema score [2, 17] was 1.8. For the same molecule, the scales score [2, 17] was 0, the thickness score [2, 18] was 1.6 and the “total score” value [2, 18] was 3.1. The thickness score [2, 19] was 1.5, the “total score” value [2, 19] was 3.3 and the erythema score [2, 20] was 1.6. For the same molecule, the scales score [2, 20] was 1.1, the erythema score [2, 21] was 1.8 and the scales score [2, 21] was 1.2. For the same molecule, the thickness score [2, 22] was 1.4, the “total score” value [2, 22] was 4.1 and the thickness score [2, 23] was 1.5. The “total score” value [2, 23] was 4.5, the erythema score [2, 24] was 1.6 and the scales score [2, 24] was 1.6. For the same molecule, the erythema score [2, 25] was 1.7, the scales score [2, 25] was 2.5 and the thickness score [2, 26] was 1.3. For the same molecule, the “total score” value [2, 26] was 4.5, the thickness score [2, 27] was 1.3 and the “total score” value [2, 27] was 5.5. The erythema score [2, 28] was 1.7, the scales score [2, 28] was 1.9 and the erythema score [2, 29] was 1.5. The scales score [2, 29] was 2.4, the thickness score [2, 30] was 1.4 and the “total score” value [2, 30] was 5. For the same molecule, the thickness score [2, 31] was 1.3, the “total score” value [2, 31] was 5.2 and the erythema score [2, 32] was 1.6. It also gave a scales score [2, 32] of 2.1, an erythema score [2, 33] of 1.2 and a scales score [2, 33] of 2.1. The thickness score [2, 34] was 1.4, the “total score” value [2, 34] was 5.1 and the thickness score [2, 35] was 1.4. The “total score” value [2, 35] was 4.7, the inhibition at 50 mg/kg ([2]; Mus musculus, 168 h, 50 mpk oral QD × 7 days, vs corresponding solvent group, read-out: inhibition rate (AUC of total clinical score)) was 23.6% and the “therapeutic effect on clinical symptoms” value ([2]; PO 50 mg/kg QD × 7 days, vs solvent group and control group) was “mild therapeutic effect on clinical symptoms”. For the same molecule, the erythema [2, 36] was “inhibited”, the thickness [2, 36] was “inhibited” and the erythema ([2]; topical administration 100 mg/kg, Day 4 to Day 7) was “inhibited”. The “effects on DNBS-induced colitis in rats” value [3] was “certain prophylactic and therapeutic effects”.
